Test results as given in paper PMC10011747, “Targeting androgen receptor and the variants by an orally bioavailable Proteolysis Targeting Chimeras compound in castration resistant prostate cancer” (eBioMedicine, 2023).

Assays:
Format in all cases: cell-based, human
[1] = system: VCaP cells; test: MTT proliferation, VCaP with enzalutamide; conditions: 20 μM enzalutamide, with or without 10 μM PROTAC, up to 8 days
Procedure: Cells were seeded in triplicate in 96-well plates 1 day prior to drug treatment for all assays. For viability test and IC50 assessment, the alamarBlue™ Cell Viability Reagent (Thermo Fisher Scientific) was added to cells 7 days after PROTAC treatment, followed by fluorescence detection as the manufacturer instructed. The IC50 was calculated by dose-inhibition regression. For proliferation monitoring, 2, 4, 6 and 8 days after PROTAC treatment (day 0), viable cells were detected by MTT Cell Proliferation Kit I (Sigma–Aldrich) according to the manufacturer's instructions. Cellular caspase activity was measured by Caspase-Glo 3/7 Assay System (Promega) 1 or 2 days after the drug treatment.
Fig. 6 AR degraders effectively diminish enzalutamide-induced AR-V expression and inhibit enzalutamide-resistant cell growth. (a) VCaP cells were treated with 20 μM enzalutamide (Enz) for 2 days, followed by one-day treatment of mock or 10 μM PROTAC. Full-length AR and AR-V(ΔLBD) was detected by N-terminal AR antibody (top) or AR-V7 specific antibody (middle). […] Cell proliferation was detected by MTT every 2 days after PROTAC treatment, up to 8 days. […] (c) AR protein levels in C4-2B and C4-2B/Enz^R cells treated with mock or 10 μM PROTAC compounds for 1 day were detected by anti-N-terminal-AR and anti-AR-V7 antibodies. […] Cell growth was monitored by MTT every 2 days up to 8 days. […]

[2] = system: AR and AR-V7 target gene expression; test: qRT-PCR of AR and AR-V7 target genes; conditions: CWR22Rv1 cells, 24 h, 5 μM
Procedure: TRIzol™ Reagent (Thermo Fisher Scientific) was used to isolate total RNA, and iScript™ cDNA Synthesis Kit (Bio-Rad, Hercules, CA, USA) was used for cDNA synthesis. The cDNA expression level of each gene was then quantified by the Bio-Rad CFX Real-Time PCR detection system using iTaq Universal SYBR Green Supermix (Bio-Rad) and primers listed in Table S1. All samples were tested in triplicate, and the expression levels were normalized against RPL13A and GAPDH cDNA levels using Bio-Rad CFX software.

[3] = system: full-length AR; test: AR degradation by western blot in prostate cancer cell lines; conditions: 24 h treatment; LNCaP, CWR22Rv1, VCaP
Procedure: To obtain total lysates, cells were lysed in RIPA buffer (50 mM Tris–HCl pH 8.0, 150 mM NaCl, 1% NP-40, 0.5% Na-deoxycholate, 0.5% SDS plus protease inhibitors). The lysates were resolved by SDS-polyacrylamide gel electrophoresis, and the protein expression was analyzed by western blotting using primary antibodies against AR (Millipore Cat# 06-680, RRID:AB_310214), AR-V7 (RevMAb Biosciences Cat# 31-1109-00, RRID:AB_2716436), GAPDH (Cell Signaling Technology Cat# 2118, RRID:AB_561053) and Actin (Sigma–Aldrich Cat# A5441, RRID:AB_476744). pLenti4/TO/Flag-AR or pLenti4/TO/Flag-TC-AR plasmid was co-transfected with HA-ubiquitin plasmid into 293T cells. 24 h after transfection, the cells were treated with 10 μM of the PROTAC compounds for 16 h, followed by 4-h treatment of 5 μM MG132. The cells were lysed with lysis buffer (50 mM Tris–HCl pH7.5, 150 mM NaCl, 0. 5% Triton X-100, 10% glycerol, 1 mM EDTA plus protease inhibitors) containing 1 ng/mL of N-ethylmaleimide, followed by immunoprecipitation with anti-Flag M2 (Sigma–Aldrich Cat# F3165, RRID:AB_259529) antibody. The ubiquitinated AR was then detected by western blotting using anti-HA (Sigma–Aldrich Cat# H3663, RRID:AB_262051) antibody.
Fig. 1 PROTAC-based AR degraders ITRI-90, ITRI-125 and ITRI-126 reduce AR and AR-V7 proteins in prostate cancer cell lines. (a) Chemical structure of the PROTAC AR degraders. (b) Representative western blots of AR protein levels in LNCaP, CWR22Rv1 and VCaP cells treated with the PROTAC degraders for 24 h. AR was detected by N-terminal antibody which also detects C-terminal truncated AR-V(ΔLBD) in CWR22Rv1 cells. AR-V7 specific antibody was used for AR-V7 detection. 4%–12% gradient gel was used to separate different species of AR-V(ΔLBD) near 75 kDa in CWR22Rv1 cell lysates. DC50 indicating the concentration required to achieve 50% degradation, was calculated based on normalized full-length AR and AR-V7 band intensity. Dmax is the maximum degradation achieved at 20 μM compound treatment. TEXT PRINTED IN THE PICTURE: (a) ITRI-90: AR DC50 (μM) LNCaP: 2.12 ± 0.93; AR DC50 (μM) CWR22Rv1: 5.73 ± 2.28; AR DC50 (μM) VCaP: 8.67 ± 4.87; AR-V7 DC50 (μM) CWR22Rv1: 4.72 ± 2.52; AR-V7 DC50 (μM) VCaP: 0.29 ± 0.15; AR Dmax (%) LNCaP: 88; AR Dmax (%) CWR22Rv1: 98; AR Dmax (%) VCaP: 90; AR-V7 Dmax (%) CWR22Rv1: 100; AR-V7 Dmax (%) VCaP: 63 | (a) ITRI-125: AR DC50 (μM) LNCaP: 6.10 ± 4.43; AR DC50 (μM) CWR22Rv1: 6.64 ± 1.87; AR DC50 (μM) VCaP: 9.05 ± 3.75; AR-V7 DC50 (μM) CWR22Rv1: 1.89 ± 1.06; AR-V7 DC50 (μM) VCaP: 0.52 ± 0.37; AR Dmax (%) LNCaP: 71; AR Dmax (%) CWR22Rv1: 96; AR Dmax (%) VCaP: 85; AR-V7 Dmax (%) CWR22Rv1: 99; AR-V7 Dmax (%) VCaP: 67 | (a) ITRI-126: AR DC50 (μM) LNCaP: 3.41 ± 3.13; AR DC50 (μM) CWR22Rv1: 0.11 ± 0.02; AR DC50 (μM) VCaP: 0.851 ± 0.43; AR-V7 DC50 (μM) CWR22Rv1: 0.011 ± 0.003; AR-V7 DC50 (μM) VCaP: 0.43 ± 0.19; AR Dmax (%) LNCaP: 99; AR Dmax (%) CWR22Rv1: 74; AR Dmax (%) VCaP: 94; AR-V7 Dmax (%) CWR22Rv1: 91; AR-V7 Dmax (%) VCaP: 82

| SMILES | VCaP proliferation (MTT) [1] | expression of AR-V7 target genes [2] | AR protein expression (negative control degraders) [3] |
| --- | --- | --- | --- |
| CNC(=O)c1ccc(N2C(=S)N(c3ccc(C#N)c(C(F)(F)F)c3)C(=O)C2(C)C)cc1F [enzalutamide] | modestly inhibits VCaP proliferation | specifically inhibited by the degraders but not enzalutamide |  |
| Cc1ncsc1-c1ccc(CNC(=O)[C@@H]2C[C@H](O)CN2C(=O)[C@@H](NC(=O)COCCCCOc2ccc(C3CCN(C4=Nn5c(nnc5C(F)(F)F)CC4)CC3)cc2)C(C)(C)C)cc1 [ITRI-90 inactive, (2S,4S)-1-((S)-3,3-dimethyl-2-(2-(4-(4-(1-(3-(trifluoromethyl)-7,8-dihydro-[1,2,4]triazolo[4,3-b]pyridazin-6-yl)piperidin-4-yl)phenoxy)butoxy)acetamido)butanoyl)-4-hydroxy-N-(4-(4-methylthiazol-5-yl)benzyl)pyrrolidine-2-carboxamide] |  |  | did not inhibit the AR protein expression |
| CN1C(=O)CCC(N2Cc3c(NC(=O)COCCCCOc4ccc(C5CCN(C6=Nn7c(nnc7C(F)(F)F)CC6)CC5)cc4)cccc3C2=O)C1=O (stereo not shown) [ITRI-126 inactive, N-(2-(1-methyl-2,6-dioxopiperidin-3-yl)-1-oxoisoindolin-4-yl)-2-(4-(4-(1-(3-(trifluoromethyl)-7,8-dihydro-[1,2,4]triazolo[4,3-b]pyridazin-6-yl)piperidin-4-yl)phenoxy)butoxy)acetamide] |  |  | did not inhibit the AR protein expression |
